Each structure is given as a SMILES string.

T1 sequence (P13569 whole entry): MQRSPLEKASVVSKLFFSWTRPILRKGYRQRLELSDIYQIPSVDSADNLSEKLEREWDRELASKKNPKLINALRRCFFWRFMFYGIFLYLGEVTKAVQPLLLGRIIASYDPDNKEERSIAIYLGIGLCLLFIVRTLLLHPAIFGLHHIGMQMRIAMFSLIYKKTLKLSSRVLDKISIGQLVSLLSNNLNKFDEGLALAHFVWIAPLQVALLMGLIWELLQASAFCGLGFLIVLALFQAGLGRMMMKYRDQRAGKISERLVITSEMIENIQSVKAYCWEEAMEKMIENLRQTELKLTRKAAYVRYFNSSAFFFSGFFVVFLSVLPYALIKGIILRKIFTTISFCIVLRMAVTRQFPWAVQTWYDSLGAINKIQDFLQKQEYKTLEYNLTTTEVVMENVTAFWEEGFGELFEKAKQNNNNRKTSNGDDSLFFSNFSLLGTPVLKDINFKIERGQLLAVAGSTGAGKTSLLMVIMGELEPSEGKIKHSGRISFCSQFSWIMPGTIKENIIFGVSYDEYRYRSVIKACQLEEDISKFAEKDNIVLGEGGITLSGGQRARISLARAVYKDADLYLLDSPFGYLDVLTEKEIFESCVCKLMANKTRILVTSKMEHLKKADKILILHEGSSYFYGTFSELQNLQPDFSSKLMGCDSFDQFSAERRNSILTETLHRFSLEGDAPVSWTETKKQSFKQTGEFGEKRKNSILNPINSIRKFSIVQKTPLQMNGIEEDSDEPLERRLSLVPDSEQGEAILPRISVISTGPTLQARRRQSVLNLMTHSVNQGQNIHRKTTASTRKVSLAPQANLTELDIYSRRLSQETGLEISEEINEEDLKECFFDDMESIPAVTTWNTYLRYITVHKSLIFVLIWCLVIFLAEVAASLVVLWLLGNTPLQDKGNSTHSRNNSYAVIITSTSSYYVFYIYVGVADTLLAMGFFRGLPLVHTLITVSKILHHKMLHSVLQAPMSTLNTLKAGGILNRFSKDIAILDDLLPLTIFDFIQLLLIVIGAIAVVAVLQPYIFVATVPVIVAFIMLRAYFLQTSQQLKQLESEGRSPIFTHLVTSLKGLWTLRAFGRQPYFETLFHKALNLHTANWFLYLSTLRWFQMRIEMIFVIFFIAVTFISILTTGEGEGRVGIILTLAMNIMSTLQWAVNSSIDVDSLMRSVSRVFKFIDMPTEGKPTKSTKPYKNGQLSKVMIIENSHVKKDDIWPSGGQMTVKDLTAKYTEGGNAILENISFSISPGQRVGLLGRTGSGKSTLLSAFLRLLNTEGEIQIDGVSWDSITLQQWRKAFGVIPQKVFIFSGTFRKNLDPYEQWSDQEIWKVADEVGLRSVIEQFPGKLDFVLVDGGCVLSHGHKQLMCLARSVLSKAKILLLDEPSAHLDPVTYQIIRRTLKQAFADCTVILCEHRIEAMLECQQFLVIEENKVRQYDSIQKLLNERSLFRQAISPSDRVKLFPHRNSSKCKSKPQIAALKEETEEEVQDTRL

The assay concerns the target T1, CFTR channel in human colonic T84 cells (Homo sapiens, UniProt P13569).
T1 construct: results in the phosphorylation and opening of CFTR anion channels; host or cells: human colonic T84 cells
The experiment in a line: T84 assay (FLIPR membrane potential dye, forskolin/IBMX-stimulated CFTR). Conditions: average of at least 2 runs unless annotated n = 1. In kind it is cell-based. Here is the method: (§1) For example, Human colonic T84 cells can be acquired from the European Collection of Cell Cultures (ECACC) and grown in standard culture conditions as described by the supplier. On the day before assay 25,000 T84 cells per well are plated into standard black walled, clear bottom 384-well assay plates in standard growth medium consisting of DMEM:F12 with 10% FBS and incubated overnight. On the day of the assay the plates are washed using a standard assay buffer (HBSS with 10 mM Hepes) and incubated for 15 minutes in serum free cell culture medium before the addition of a commercially available membrane potential sensitive fluorescent dye (FLIPR Red membrane potential dye, Molecular Devices Corporation). T84 cells are incubated with the FLIPR Red membrane potential dye for 45 minutes in the presence and absence of test compound before being transferred to a commercially available fluorescence imaging plate reader (FLIPR384, Molecular Devices Corporation). Fluorescence levels are monitored continuously every second for 150 seconds; after an initial 10 second baseline, CFTR channel activity is stimulated through the addition of 10 μM forskolin in the presence of 100 μM of the phosphodiesterase inhibitor iso-butyl-methylxanthine (IBMX). Addition of the forskolin leads to the activation of intracellular adenylyl cylase 1, elevating cAMP levels and results in the phosphorylation and opening of CFTR anion channels. CFTR channel opening causes chloride ion efflux and subsequent depolarization of the cells, which is measured by an increase in fluorescence. CFTR inhibitor compounds prevent cell depolarization and the associated increase in fluorescence.
as §1, with “Human colonic” for “For example, Human colonic”, “T84 cells are acquired from” for “T84 cells can be acquired from”, “(ECACC) and are grown in” for “(ECACC) and grown in”
Compound `Oc1c(Br)cc(-c2cnc(C(O)(c3ccc(Cl)cc3)c3ccc(Cl)cc3)nn2)cc1Br` [Compound 100, 4-(3-(bis(4-chlorophenyl)(hydroxy)methyl)-1,2,4-triazin-6-yl)-2,6-dibromophenol] yielded an IC50 of 7.77 µM. Regarding `Oc1c(Br)cc(-c2cnc(OCc3ccccn3)nn2)cc1Br` [Compound 104, 2,6-dibromo-4-(3-(pyridin-2-ylmethoxy)-1,2,4-triazin-6-yl)phenol], the midpoint of inhibition, the IC50, lay at 16 µM. `Oc1c(Br)cc(-c2cnc(OCc3ccncc3)nn2)cc1Br` [Compound 106, 2,6-dibromo-4-(3-(pyridin-4-ylmethoxy)-1,2,4-triazin-6-yl)phenol] came in with a half-maximal inhibitory concentration (IC50) of 18.1 µM. The IC50 values of the last two compounds are within 1.5-fold of each other. `Oc1c(Br)cc(-c2cnc(OCc3cc(Br)cs3)nn2)cc1Br` [Compound 107, 2,6-dibromo-4-(3-((4-bromothiophen-2-yl)methoxy)-1,2,4-triazin-6-yl)phenol] yielded an IC50 of 0.44 µM. Compared with the last compound, the IC50 is about 41-fold lower. Consider `Oc1c(Br)cc(-c2cnc(OC3CCc4ccccc4C3)nn2)cc1Br` (centres unmarked) [Compound 108, 2,6-dibromo-4-(3-(1,2,3,4-tetrahydronaphthalen-2-yloxy)-1,2,4-triazin-6-yl)phenol], for which the IC50 was 1.18 µM. As for `Oc1c(Br)cc(-c2cnc(OC(c3cccc(C(F)(F)F)c3)c3cccc(C(F)(F)F)c3)nn2)cc1Br` [Compound 109, 4-(3-(bis(3-(trifluoromethyl)phenyl)methoxy)-1,2,4-triazin-6-yl)-2,6-dibromophenol], the half-maximal inhibitory concentration (IC50) is 12.2 µM.

In turn, `Oc1c(Br)cc(-c2cnc(OCc3ccc(CN4CCOCC4)cc3)nn2)cc1Br` [Compound 110, 2,6-dibromo-4-(3-(4-(morpholinomethyl)benzyloxy)-1,2,4-triazin-6-yl)phenol] registered an IC50 of 12.9 µM.

`Oc1c(Cl)cc(-c2cnc(OC(Cc3ccccc3)c3ccccc3)nn2)cc1Cl` (centres unmarked) [Compound 111, 2,6-dichloro-4-(3-(1,2-diphenylethoxy)-1,2,4-triazin-6-yl)phenol] came in with an IC50 of 1.89 µM. For the compound `Oc1c(Cl)cc(-c2cnc(OCCc3ccc(Cl)cc3)nn2)cc1Cl` [Compound 112, 2,6-dichloro-4-(3-(4-chlorophenethoxy)-1,2,4-triazin-6-yl)phenol], the IC50 worked out at 0.17 µM. Take `Oc1c(Cl)cc(-c2cnc(OCc3ccc(Cl)cc3)nn2)cc1Cl` [Compound 113, 2,6-dichloro-4-(3-(4-chlorobenzyloxy)-1,2,4-triazin-6-yl)phenol]: the half-maximal inhibitory concentration (IC50) is 1.3 µM. `Oc1c(Cl)cc(-c2cnc(OCc3cccc(Cl)c3Cl)nn2)cc1Cl` [Compound 114, 2,6-dichloro-4-(3-(2,3-dichlorobenzyloxy)-1,2,4-triazin-6-yl)phenol] gave an IC50 of 3.36 µM. Against the preceding compound, the IC50 is about 2.6-fold higher. Regarding `Oc1c(Cl)cc(-c2cnc(OCCc3cccc4ccccc34)nn2)cc1Cl` [Compound 115, 2,6-dichloro-4-(3-(2-(naphthalen-1-yl)ethoxy)-1,2,4-triazin-6-yl)phenol], the IC50 is 0.35 µM. This IC50 lies about 9.6-fold lower than the previous one.

For `Oc1c(Cl)cc(-c2cnc(OCc3cccc4ccccc34)nn2)cc1Cl` [Compound 116, 2,6-dichloro-4-(3-(naphthalen-1-ylmethoxy)-1,2,4-triazin-6-yl)phenol], the IC50 was determined as 1.89 µM. Under `Oc1c(Cl)cc(-c2cnc(OCCc3ccc(Br)cc3)nn2)cc1Cl` [Compound 117, 4-(3-(4-bromophenethoxy)-1,2,4-triazin-6-yl)-2,6-dichlorophenol] stands 0.61 µM; under `Oc1c(Br)cc(-c2cnc(OCc3cnc(Br)s3)nn2)cc1Br` [Compound 118, 2,6-dibromo-4-(3-((2-bromothiazol-5-yl)methoxy)-1,2,4-triazin-6-yl)phenol], 3.23 µM; under `CN(C)c1cccc(COc2ncc(-c3cc(Cl)c(O)c(Cl)c3)nn2)c1` [Compound 119, 2,6-dichloro-4-(3-(3-(dimethylamino)benzyloxy)-1,2,4-triazin-6-yl)phenol], 3.4 µM.

Turning to `Oc1c(Cl)cc(-c2cnc(NCc3cccc(Cl)c3Cl)nn2)cc1Cl` [Compound 121, 2,6-Dichloro-4-(3-(2,3-dichlorobenzylamino)-1,2,4-triazin-6-yl)phenol], it took 13.1 µM to reach half-maximal inhibition (IC50).

What is called IC50 is the concentration that inhibits the measured activity by half. Read a high IC50 as a need for much substance.
